Usually inhibition stands for the change of the read-out against control, counted positive when it falls.

One test deals with T1, B1R of the rat (Rattus norvegicus, UniProt P97583).
T1 construct: expressed in transfected cells; host or cells: CHO K1 cells (Chinese hamster ovary), stably transfected
T1 sequence (P97583 1-337): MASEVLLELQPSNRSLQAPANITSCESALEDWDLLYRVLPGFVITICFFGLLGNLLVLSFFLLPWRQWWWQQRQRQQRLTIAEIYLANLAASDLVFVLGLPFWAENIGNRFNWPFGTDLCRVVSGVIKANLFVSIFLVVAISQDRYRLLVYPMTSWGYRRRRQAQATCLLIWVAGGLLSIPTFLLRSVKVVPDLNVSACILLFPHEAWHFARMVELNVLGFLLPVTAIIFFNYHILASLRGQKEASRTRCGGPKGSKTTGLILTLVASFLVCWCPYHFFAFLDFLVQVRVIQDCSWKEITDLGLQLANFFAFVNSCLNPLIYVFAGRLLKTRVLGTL
The test is described as follows: FLIPR Ca2+ functional assay, B1R antagonism, rat B1R in CHO K1 cells. Particulars: test substance 10 μM; rB1R CHO K1 cells; agonist Des-Arg9 bradykinin at EC80; % of maximum achievable inhibition. Type of test: cell-based. Summed up: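 IC50 values come from varied compound concentrations applied 10-20 min before an EC80 agonist challenge, with Des-Arg9 bradykinin for rat and Lys-Des-Arg9 bradykinin for human receptor. Ca2+ influx in Fluo-4-loaded CHO K1 transfectants was measured by FLIPR peak fluorescence. Data are % inhibition vs maximum, n=2-3, N>=2.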

For another test, the target named is T2, human B1R (Homo sapiens, UniProt P46663).
T2 construct: expressed in transfected cells; host or cells: CHO K1 cells (Chinese hamster ovary), stably transfected
T2 sequence (P46663 1-353): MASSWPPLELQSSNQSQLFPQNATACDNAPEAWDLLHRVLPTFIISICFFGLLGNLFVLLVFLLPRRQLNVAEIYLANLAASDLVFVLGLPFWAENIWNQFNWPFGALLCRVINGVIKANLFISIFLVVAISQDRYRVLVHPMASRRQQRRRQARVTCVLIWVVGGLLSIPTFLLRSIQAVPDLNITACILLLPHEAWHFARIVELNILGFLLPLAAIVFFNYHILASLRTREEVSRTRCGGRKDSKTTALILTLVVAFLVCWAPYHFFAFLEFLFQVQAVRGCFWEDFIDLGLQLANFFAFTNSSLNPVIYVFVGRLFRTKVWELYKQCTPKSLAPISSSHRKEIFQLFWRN
The test is described as follows: FLIPR Ca2+ functional assay, B1R antagonism, human B1R in CHO K1 cells. Type of test: cell-based. Particulars: test substance 10 μM; hB1R CHO K1 cells; agonist Lys-Des-Arg9 bradykinin at EC80; % of maximum achievable inhibition. As for the experimental part:
The agonistic or antagonistic action of substances on the bradykinin 1 receptor (B1R) of the human and rat species can be quantified with ectopically expressing cell lines (CHO K1 cells) and with the aid of a Ca^2+-sensitive dye (Fluo-4) using a fluorescent imaging plate reader (FLIPR). The value in % activation is based on the Ca^2+ signal after addition of Lys-Des-Arg^9 bradykinin (0.5 nM) or Des-Arg^9 bradykinin (100 nM). Antagonists lead to a suppression of the Ca^2+ influx following administration of the agonist. The % inhibition in comparison with the maximum achievable inhibition is indicated.
1. Functional Investigation on the Bradykinin 1 Receptor (B1R) The agonistic or antagonistic action of substances can be determined on the bradykinin 1 receptor (B1R) of the human and rat species with the following assay. According to this assay, the Ca^2+ inflow through the channel is quantified with the aid of a Ca^2+-sensitive dye (Fluo-4 type, Molecular Probes Europe BV, Leiden, Netherlands) in a fluorescent imaging plate reader (FLIPR, Molecular Devices, Sunnyvale, USA). 2. Method: Chinese hamster ovary cells (CHO K1 cells) which are stably transfected with the human B1R gene (hB1R cells) or the B1R gene of the rat (rB1R cells) are used. For functional investigations these cells are plated-out onto black 96-well plates with a clear base (BD Biosciences, Heidelberg, Germany or Greiner, Frickenhausen, Germany) in a density of 20,000-35,000 cells/well. Overnight the cells are incubated at 37° C. and 5% CO2 in culture medium (hB1R cells: Ham's Nutrient Mixture F12, Gibco Invitrogen GmbH, Karlsruhe, Germany or DMEM, Sigma-Aldrich, Taufkirchen, Germany; rB1R cells: D-MEM/F12, Gibco Invitrogen, Karlsruhe, Germany) with 10 vol. % FBS (foetal bovine serum, Gibco Invitrogen GmbH, Karlsruhe, Germany or PAN Biotech GmbH, Aidenbach, Germany).
On the following day the cells are loaded with 2.13 μM Fluo-4 (Molecular Probes Europe BV, Leiden, Netherlands) in HBSS buffer (Hank's buffered saline solution, Gibco Invitrogen GmbH, Karlsruhe, Germany) with 2.5 mM probenecid (Sigma-Aldrich, Taufkirchen, Germany) and 10 mM HEPES (Sigma-Aldrich, Taufkirchen, Germany) for 60 min at 37° C. The plates are subsequently washed twice with HBSS buffer, and HBSS buffer which additionally contains 0.1% BSA (bovine serum albumin; Sigma-Aldrich, Taufkirchen, Germany), 5.6 mM glucose and 0.05% gelatine (Merck KGaA, Darmstadt, Germany) is added. After a further incubation of 20 minutes at RT, the plates are inserted into the FLIPR for Ca^2+ measurement. Alternatively they are washed with buffer A (15 mM HEPES, 80 mM NaCl, 5 mM KCl, 1.2 mM CaCl2, 0.7 mM MgSO4, 2 g/l glucose, 2.5 mM probenecid) and loaded with buffer A with added 2.5 μM Fluo-4 and 0.025% Pluronic F127 (Sigma-Aldrich, Taufkirchen, Germany). The cells are then washed twice with buffer A and incubated for 30 minutes with buffer A, which additionally contains 0.05% BSA and 0.05% gelatine, at RT and then used for Ca^2+ measurement in the FLIPR. The Ca^2+-dependent fluorescence is measured here before and after addition of substances (λex=488 nm, λem=540 nm). The quantification is performed by measuring the highest fluorescence intensity (FC, fluorescence counts) over time.
The FLIPR protocol comprises two additions of substance. Test substances (10 μM) are first pipetted onto the cells and the Ca^2+ inflow is compared with the control (hB1R: Lys-Des-Arg^9 bradykinin >=50 nM; rB1R: Des-Arg^9 bradykinin 10 μM). The value in % activation based on the Ca^2+ signal after addition of Lys-Des-Arg^9 bradykinin (>=50 nM) or Des-Arg^9 bradykinin (10 μM) is obtained therefrom. After incubation for 10-20 minutes, Lys-Des-Arg^9 bradykinin (hB1R) or Des-Arg^9 bradykinin (rB1R) is applied in the EC80 concentration and the inflow of Ca^2+ is likewise determined.
Antagonists lead to a suppression of the Ca^2+ inflow. The % inhibition in comparison with the maximum achievable inhibition is calculated. […]

Each structure is given as a SMILES string.

Turning to `Cc1cc(S(=O)(=O)N2CCn3cccc3C2CC(=O)NC2CCc3cc(CN4CCCCC4)ccc3C2)c(C)cc1Cl` (centres unmarked) [Example 25, 2-(2-(4-chloro-2,5-dimethylphenylsulfonyl)-1,2,3,4-tetrahydropyrrolo[1,2-a]pyrazin-1-yl)-N-(6-(piperidin-1-ylmethyl)-1,2,3,4-tetrahydronaphthalen-2-yl)acetamide], the inhibition at 10 µM on B1R of the rat was 103%; at human B1R it was 96%.
With `O=C(CC1c2cccn2CCN1S(=O)(=O)c1ccc(Cl)c(Cl)c1)NC1CCc2cc(CN3CCCCC3)ccc2C1` (centres unmarked) [Example 26, 2-(2-(3,4-dichlorophenylsulfonyl)-1,2,3,4-tetrahydropyrrolo[1,2-a]pyrazin-1-yl)-N-(6-(piperidin-1-ylmethyl)-1,2,3,4-tetrahydronaphthalen-2-yl)acetamide], the values for the inhibition at 10 µM on B1R of the rat and on human B1R were 102% and 98.9%, respectively.
On to `O=C(CC1c2cccn2CCN1S(=O)(=O)c1ccccc1)NC1CCc2cc(CN3CCCCC3)ccc2C1` (centres unmarked) [Example 27, 2-(2-(phenylsulfonyl)-1,2,3,4-tetrahydropyrrolo[1,2-a]pyrazin-1-yl)-N-(6-(piperidin-1-ylmethyl)-1,2,3,4-tetrahydronaphthalen-2-yl)acetamide], for which the inhibition at 10 µM turned out to be 102% on B1R of the rat and 100% at human B1R.
`O=C(CC1c2cccn2CCN1S(=O)(=O)c1cccc(Cl)c1Cl)NC1CCc2cc(CN3CCCCC3)ccc2C1` (centres unmarked) [Example 28, 2-(2-(2,3-dichlorophenylsulfonyl)-1,2,3,4-tetrahydropyrrolo[1,2-a]pyrazin-1-yl)-N-(6-(piperidin-1-ylmethyl)-1,2,3,4-tetrahydronaphthalen-2-yl)acetamide]: the inhibition at 10 µM amounted to 100% at B1R of the rat and 99.5% at human B1R.
As to `Cc1ccc(S(=O)(=O)N2CCn3cccc3C2CC(=O)NC2CCc3cc(CN4CCCCC4)ccc3C2)cc1` (centres unmarked) [Example 29, N-(6-(piperidin-1-ylmethyl)-1,2,3,4-tetrahydronaphthalen-2-yl)-2-(2-tosyl-1,2,3,4-tetrahydropyrrolo[1,2-a]pyrazin-1-yl)acetamide], the results for the inhibition at 10 µM at B1R of the rat and at human B1R were 102% and 99.8%, respectively.
For the compound `O=C(CC1c2cccn2CCN1S(=O)(=O)c1cccc(C(F)(F)F)c1)NC1CCc2cc(CN3CCCCC3)ccc2C1` (centres unmarked) [Example 30, N-(6-(piperidin-1-ylmethyl)-1,2,3,4-tetrahydro-naphthalen-2-yl)-2-(2-(3-(trifluoromethyl)-phenylsulfonyl)-1,2,3,4-tetrahydropyrrolo-[1,2-a]pyrazin-1-yl)acetamide], the inhibition at 10 µM at B1R of the rat came out at 102%; at human B1R, 99.8%.
Turning to `COc1ccc2cc(S(=O)(=O)N3CCn4cccc4C3CC(=O)NC3CCc4cc(CNC(C)(C)C)ccc4C3)ccc2c1` (centres unmarked) [Example 31, N-(6-((tert-Butylamino)methyl)-1,2,3,4-tetrahydronaphthalen-2-yl)-2-(2-(6-methoxynaphthalen-2-ylsulfonyl)-1,2,3,4-tetrahydropyrrolo[1,2-a]-pyrazin-1-yl)acetamide], the results for the inhibition at 10 µM at B1R of the rat and on human B1R were 104% and 100%, respectively.
Turning to `COc1cc(C)c(S(=O)(=O)N2CCn3cccc3C2COCC(=O)NC2CCN(c3ccc(C(F)(F)F)cn3)CC2)c(C)c1` (centres unmarked) [Example 32, 2-[[2-[(4-Methoxy-2,6-dimethyl-phenyl)sulfonyl]-1,2,3,4-tetrahydro-pyrrolo[1,2-a]pyrazin-1-yl]-methoxy]-N-[1-[5-(trifluoromethyl)-pyridin-2-yl]-piperidin-4-yl]-acetamide], the inhibition at 10 µM on B1R of the rat came to 65.5%; on human B1R, 8.84%.
With `COc1cc(C)c(S(=O)(=O)N2CCn3cccc3C2COCC(=O)NC2CCN(c3ccc(C(F)(F)F)cn3)C2)c(C)c1` (centres unmarked) [Example 33, 2-[[2-[(4-Methoxy-2,6-dimethyl-phenyl)sulfonyl]-1,2,3,4-tetrahydro-pyrrolo[1,2-a]pyrazin-1-yl]-methoxy]-N-[1-[5-(trifluoromethyl)-pyridin-2-yl]-pyrrolidin-3-yl]-acetamide], the inhibition at 10 µM at B1R of the rat is 58.1%; at human B1R, 15.7%.
In the case of `COc1cc(C)c(S(=O)(=O)N2CCn3cccc3C2COCC(=O)N2CCC(c3ccncc3)CC2)c(C)c1` (centres unmarked) [Example 34, 2-[[2-[(4-Methoxy-2,6-dimethyl-phenyl)sulfonyl]-1,2,3,4-tetrahydro-pyrrolo[1,2-a]pyrazin-1-yl]-methoxy]-1-(4-pyridin-4-yl-piperidin-1-yl)-ethanone], the inhibition at 10 µM worked out at 103% at B1R of the rat and 99.2% at human B1R.
As for `COc1cc(C)c(S(=O)(=O)N2CCn3cccc3C2COCC(=O)N2CCC(Cc3ccncc3)CC2)c(C)c1` (centres unmarked) [Example 35, 2-[[2-[(4-Methoxy-2,6-dimethyl-phenyl)sulfonyl]-1,2,3,4-tetrahydro-pyrrolo[1,2-a]pyrazin-1-yl]-methoxy]-1-[4-(pyridin-4-yl-methyl)-piperidin-1-yl]-ethanone], the inhibition at 10 µM was 101% at B1R of the rat and 97.7% on human B1R.
Take `COc1cc(C)c(S(=O)(=O)N2CCn3cccc3C2COCC(=O)NC2CCN(c3ccncc3)CC2)c(C)c1` (centres unmarked) [Example 36, 2-[[2-[(4-Methoxy-2,6-dimethyl-phenyl)sulfonyl]-1,2,3,4-tetrahydro-pyrrolo[1,2-a]pyrazin-1-yl]-methoxy]-N-(1-pyridin-4-yl-piperidin-4-yl)-acetamide]: the inhibition at 10 µM at B1R of the rat amounted to 103%; on human B1R it was 97.5%.
As for `COc1cc(C)c(S(=O)(=O)N2CCn3cccc3C2COCC(=O)N2CCC(CN3CCN(C)CC3)C2)c(C)c1` (centres unmarked) [Example 37, 2-[[2-[(4-Methoxy-2,6-dimethyl-phenyl)sulfonyl]-1,2,3,4-tetrahydro-pyrrolo[1,2-a]pyrazin-1-yl]-methoxy]-1-[3-[(4-methyl-piperazin-1-yl)-methyl]-pyrrolidin-1-yl]-ethanone], the values for the inhibition at 10 µM on B1R of the rat and on human B1R were 104% and 97.8%, respectively.

These data come from patent US8158628B2, “Sulfonylated 1,2,3,4-tetrahydropyrrolo[1,2-a]pyrazine compounds and their use as pharmaceuticals” (Gruenenthal GmbH, priority 2009, dated 2012).
